Two compounds from ChEMBL document CHEMBL1156502, “Stabilized immune modulatory RNA compounds as agonists of Toll-like receptors 7 and 8” (Proc Natl Acad Sci U S A, 2007) can be followed below.

The target in series [1] is T1, Toll-like receptor 8 (Homo sapiens) (UniProt Q9NR97).
T1 sequence (whole entry): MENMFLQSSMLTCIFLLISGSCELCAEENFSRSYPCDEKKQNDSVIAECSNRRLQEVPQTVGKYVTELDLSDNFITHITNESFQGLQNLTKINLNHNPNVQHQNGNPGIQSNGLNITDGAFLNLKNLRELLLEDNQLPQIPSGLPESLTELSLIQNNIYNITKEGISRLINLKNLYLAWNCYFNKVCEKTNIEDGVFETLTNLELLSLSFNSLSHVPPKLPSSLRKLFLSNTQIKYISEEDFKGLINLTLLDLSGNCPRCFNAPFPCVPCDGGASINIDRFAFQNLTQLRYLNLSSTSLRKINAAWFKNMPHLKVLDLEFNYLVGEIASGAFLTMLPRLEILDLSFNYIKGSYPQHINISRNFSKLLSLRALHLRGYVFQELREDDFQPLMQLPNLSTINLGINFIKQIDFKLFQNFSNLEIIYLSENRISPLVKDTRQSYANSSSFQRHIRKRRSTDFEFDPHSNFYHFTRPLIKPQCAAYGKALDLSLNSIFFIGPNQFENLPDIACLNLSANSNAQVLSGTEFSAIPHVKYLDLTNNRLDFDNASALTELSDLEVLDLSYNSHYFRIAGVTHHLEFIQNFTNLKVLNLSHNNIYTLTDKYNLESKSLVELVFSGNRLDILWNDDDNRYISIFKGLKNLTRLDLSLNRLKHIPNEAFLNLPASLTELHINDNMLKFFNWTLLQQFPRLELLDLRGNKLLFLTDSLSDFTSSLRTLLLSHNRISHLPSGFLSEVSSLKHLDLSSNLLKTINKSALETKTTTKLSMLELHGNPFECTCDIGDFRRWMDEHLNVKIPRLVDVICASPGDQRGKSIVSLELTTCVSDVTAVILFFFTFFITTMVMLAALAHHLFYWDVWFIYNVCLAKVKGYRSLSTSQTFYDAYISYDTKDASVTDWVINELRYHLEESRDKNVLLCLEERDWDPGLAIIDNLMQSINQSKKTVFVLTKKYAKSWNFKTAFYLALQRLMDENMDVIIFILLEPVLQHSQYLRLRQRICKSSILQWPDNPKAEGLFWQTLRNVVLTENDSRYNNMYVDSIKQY
In words: Activation of human TLR8 expressed in HEK293 cells assessed as increase in NF-kappaB activation at 100 ug/ml by SEAP assay. It is filed as cell-based.

Another series deals with Dendritic cell. In words: Induction of IFNalpha secretion in human plasmacytoid dendritic cells at 200 ug/ml after 24 hrs by Luminex Multiplex assay. It is filed as functional.
Series [2] has as its target T2, Toll-like receptor 7 (Homo sapiens) (UniProt Q9NYK1).
T2 sequence (whole entry): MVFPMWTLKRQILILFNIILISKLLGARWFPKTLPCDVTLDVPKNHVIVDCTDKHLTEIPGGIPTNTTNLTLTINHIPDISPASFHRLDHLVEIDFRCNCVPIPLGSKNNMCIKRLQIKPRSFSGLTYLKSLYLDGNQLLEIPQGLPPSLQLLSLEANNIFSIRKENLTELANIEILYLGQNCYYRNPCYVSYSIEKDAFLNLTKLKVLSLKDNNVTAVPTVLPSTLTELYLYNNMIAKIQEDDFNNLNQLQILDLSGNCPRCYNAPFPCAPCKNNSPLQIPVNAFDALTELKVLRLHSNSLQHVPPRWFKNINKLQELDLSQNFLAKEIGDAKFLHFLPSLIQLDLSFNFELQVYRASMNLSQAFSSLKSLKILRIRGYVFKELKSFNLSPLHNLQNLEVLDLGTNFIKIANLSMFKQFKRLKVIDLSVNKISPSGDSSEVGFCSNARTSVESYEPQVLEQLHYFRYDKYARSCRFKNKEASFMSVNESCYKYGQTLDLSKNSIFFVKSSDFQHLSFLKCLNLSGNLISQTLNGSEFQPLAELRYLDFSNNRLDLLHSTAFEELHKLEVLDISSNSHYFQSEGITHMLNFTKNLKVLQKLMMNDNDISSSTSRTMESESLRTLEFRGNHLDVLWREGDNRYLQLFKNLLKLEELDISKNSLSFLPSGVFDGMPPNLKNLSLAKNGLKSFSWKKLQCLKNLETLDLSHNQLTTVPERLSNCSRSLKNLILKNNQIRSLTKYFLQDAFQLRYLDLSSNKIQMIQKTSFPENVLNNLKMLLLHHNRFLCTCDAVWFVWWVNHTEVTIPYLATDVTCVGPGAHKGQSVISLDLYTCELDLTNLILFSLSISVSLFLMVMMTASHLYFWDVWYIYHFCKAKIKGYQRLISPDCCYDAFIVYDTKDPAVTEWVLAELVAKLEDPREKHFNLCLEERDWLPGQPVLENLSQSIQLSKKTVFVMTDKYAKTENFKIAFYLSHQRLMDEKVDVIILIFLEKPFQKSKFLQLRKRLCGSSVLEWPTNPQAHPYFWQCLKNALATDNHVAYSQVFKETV
In words: Activation of human TLR7 expressed in HEK293 cells assessed as increase in NF-kappaB activation at 100 ug/ml by SEAP assay. Type of series: cell-based.

Series [3] deals with spleen. Briefly: Induction of chemokine secretion in C57BL/6 mouse spleen cells 100 ug/ml after 24 hrs by Luminex Multiplex assay. Type of series: functional, cell-based.
The subject of series [4] is spleen. In words: Induction of cytokine secretion in C57BL/6 mouse spleen cells at 100 ug/ml after 24 hrs by Luminex Multiplex assay. Type of series: functional, cell-based.
A short description of series [5]: Stability in 1% human serum assessed as full length product after 10 mins. To be noted: read-out: Stability. It is filed as ADME, cell-free.
For series [6], the system named is PBMC. Briefly: Induction of IL10 secretion in human PBMC after 24 hrs by Luminex Multiplex assay. It is filed as functional, cell-based.
The subject of series [7] is PBMC. Briefly: Induction of IL12 secretion in human PBMC after 24 hrs by Luminex Multiplex assay. It is filed as functional, cell-based.
Series [8] relates to PBMC. Briefly: Induction of IFN-gamma secretion in human PBMC after 24 hrs by Luminex Multiplex assay. It is filed as functional, cell-based.
Series [9] concerns PBMC. Briefly: Induction of IL1-beta secretion in human PBMC after 24 hrs by Luminex Multiplex assay. It is filed as functional, cell-based.
Series [10] relates to PBMC. Briefly: Induction of IFNalpha secretion in human PBMC after 24 hrs by Luminex Multiplex assay. It is filed as functional, cell-based.
In series [11] the test system is PBMC. Briefly: Induction of IL2R secretion in human PBMC after 24 hrs by Luminex Multiplex assay. It is filed as functional, cell-based.

Active and inactive are the calls of the source. The calls are words filed in the database; no cut-off is given here.

Consider `Nc1ccn([C@@H]2O[C@H](COP(O)(=S)O[C@H]3[C@@H](O)[C@H](n4ccc(=O)[nH]c4=O)O[C@@H]3COP(O)(=S)O[C@H]3[C@@H](O)[C@H](n4ccc(=O)[nH]c4=O)O[C@@H]3COP(O)(=S)O[C@H]3[C@@H](O)[C@H](n4ccc(N)nc4=O)O[C@@H]3COP(O)(=S)O[C@H]3[C@@H](O)[C@H](n4ccc5c(=O)[nH]c(N)nc54)O[C@@H]3COP(O)(=S)O[C@H]3[C@@H](O)[C@H](n4ccc(=O)[nH]c4=O)O[C@@H]3COP(O)(=S)O[C@H]3[C@@H](O)[C@H](n4ccc(N)nc4=O)O[C@@H]3COP(O)(=S)O[C@H]3[C@@H](O)[C@H](n4ccc5c(=O)[nH]c(N)nc54)O[C@@H]3COP(O)(=S)O[C@H]3[C@@H](O)[C@H](n4ccc(=O)[nH]c4=O)O[C@@H]3CO)[C@@H](OP(O)(=S)OC[C@H]3O[C@@H](n4ccc(=O)[nH]c4=O)[C@H](O)[C@@H]3OP(O)(=S)OC[C@H]3O[C@@H](n4ccc5c(=O)[nH]c(N)nc54)[C@H](O)[C@@H]3OP(O)(=S)OCCC(O)CCOP(O)(=S)O[C@H]3[C@@H](O)[C@H](n4ccc5c(=O)[nH]c(N)nc54)O[C@@H]3COP(O)(=S)O[C@H]3[C@@H](O)[C@H](n4ccc(=O)[nH]c4=O)O[C@@H]3COP(O)(=S)O[C@H]3[C@@H](O)[C@H](n4ccc(N)nc4=O)O[C@@H]3COP(O)(=S)O[C@H]3[C@@H](O)[C@H](n4ccc(=O)[nH]c4=O)O[C@@H]3COP(O)(=S)O[C@H]3[C@@H](O)[C@H](n4ccc(=O)[nH]c4=O)O[C@@H]3COP(O)(=S)O[C@H]3[C@@H](O)[C@H](n4ccc(N)nc4=O)O[C@@H]3COP(O)(=S)O[C@H]3[C@@H](O)[C@H](n4ccc5c(=O)[nH]c(N)nc54)O[C@@H]3COP(O)(=S)O[C@H]3[C@@H](O)[C@H](n4ccc(=O)[nH]c4=O)O[C@@H]3COP(O)(=S)O[C@H]3[C@@H](O)[C@H](n4ccc(N)nc4=O)O[C@@H]3COP(O)(=S)O[C@H]3[C@@H](O)[C@H](n4ccc5c(=O)[nH]c(N)nc54)O[C@@H]3COP(O)(=S)O[C@H]3[C@@H](O)[C@H](n4ccc(=O)[nH]c4=O)O[C@@H]3CO)[C@H]2O)c(=O)n1` (some centres undefined), for which the outcome (in series [1]; with Dendritic cell; in [2]) was Active. Also, the Activity result in the series with spleen [3] and in the series with spleen [4] was “Dose-dependent effect” throughout.
Regarding `Nc1ccn([C@@H]2O[C@H](COP(O)(=S)O[C@H]3[C@@H](O)[C@H](n4ccc(=O)[nH]c4=O)O[C@@H]3COP(O)(=S)O[C@H]3[C@@H](O)[C@H](n4ccc(=O)[nH]c4=O)O[C@@H]3COP(O)(=S)O[C@H]3[C@@H](O)[C@H](n4ccc(N)nc4=O)O[C@@H]3COP(O)(=S)O[C@H]3[C@@H](O)[C@H](n4cnc5c(=O)[nH]c(N)nc54)O[C@@H]3COP(O)(=S)O[C@H]3[C@@H](O)[C@H](n4ccc(=O)[nH]c4=O)O[C@@H]3COP(O)(=S)O[C@H]3[C@@H](O)[C@H](n4ccc(N)nc4=O)O[C@@H]3COP(O)(=S)O[C@H]3[C@@H](O)[C@H](n4cnc5c(=O)[nH]c(N)nc54)O[C@@H]3COP(O)(=S)O[C@H]3[C@@H](O)[C@H](n4ccc(=O)[nH]c4=O)O[C@@H]3CO)[C@@H](OP(O)(=S)OC[C@H]3O[C@@H](n4ccc(=O)[nH]c4=O)[C@H](O)[C@@H]3OP(O)(=S)OC[C@H]3O[C@@H](n4cnc5c(=O)[nH]c(N)nc54)[C@H](O)[C@@H]3OP(O)(=S)OCC(O)COP(O)(=S)O[C@H]3[C@@H](O)[C@H](n4cnc5c(=O)[nH]c(N)nc54)O[C@@H]3COP(O)(=S)O[C@H]3[C@@H](O)[C@H](n4ccc(=O)[nH]c4=O)O[C@@H]3COP(O)(=S)O[C@H]3[C@@H](O)[C@H](n4ccc(N)nc4=O)O[C@@H]3COP(O)(=S)O[C@H]3[C@@H](O)[C@H](n4ccc(=O)[nH]c4=O)O[C@@H]3COP(O)(=S)O[C@H]3[C@@H](O)[C@H](n4ccc(=O)[nH]c4=O)O[C@@H]3COP(O)(=S)O[C@H]3[C@@H](O)[C@H](n4ccc(N)nc4=O)O[C@@H]3COP(O)(=S)O[C@H]3[C@@H](O)[C@H](n4cnc5c(=O)[nH]c(N)nc54)O[C@@H]3COP(O)(=S)O[C@H]3[C@@H](O)[C@H](n4ccc(=O)[nH]c4=O)O[C@@H]3COP(O)(=S)O[C@H]3[C@@H](O)[C@H](n4ccc(N)nc4=O)O[C@@H]3COP(O)(=S)O[C@H]3[C@@H](O)[C@H](n4cnc5c(=O)[nH]c(N)nc54)O[C@@H]3COP(O)(=S)O[C@H]3[C@@H](O)[C@H](n4ccc(=O)[nH]c4=O)O[C@@H]3CO)[C@H]2O)c(=O)n1` (some centres undefined), the result in series [1] was Active. In addition, in series [5], the remaining at 10 min was 56%. In addition, the Activity result with PBMC [6], with PBMC [7], in the series on PBMC [8], with PBMC [9], in the series on PBMC [10] and with PBMC [11] was “Dose-dependent effect” in each case. Besides, the outcome in [2] was inactive.
